Consider nine compounds from patent US20260198498A1, “FUNGICIDAL COMPOSITIONS” (SYNGENTA CROP PROTECTION AG, priority 2022, published 2026).

Assay [1] is described as follows: Comparison of fungicidal activity of the separated stereoisomers (peaks 1 to 4). The conditions noted are these: SFC-separated stereoisomers of Example P3.
For assay [2], the system named is Glomerella lagenarium (Colletotrichum lagenarium). As to the kind of experiment: Example B5: Glomerella lagenarium (Colletotrichum lagenarium)/Liquid Culture (Anthracnose). The format is cell-based. To be noted: Colletotrichum orbiculare, liquid culture, photometrically 3 to 4 days after application, read-out: control of Glomerella lagenarium. The protocol: Example B5: Glomerella lagenarium (Colletotrichum lagenarium)/Liquid Culture (Anthracnose)
Conidia of the fungus from cryogenic storage are directly mixed into nutrient broth (PDB potato dextrose broth). After placing a (DMSO) solution of test compound into a microtiter plate (96-well format), the nutrient broth containing the fungal spores is added. The test plates are incubated at 24° C. and the inhibition of growth is measured photometrically 3 to 4 days after application.

Assay [3] concerns Pyrenophora teres. As to the kind of experiment: Example B18: Pyrenophora teres/Barley/Leaf Disc Preventative (Net Blotch). The format is in vivo. The conditions noted are these: foliar, barley leaf segments, inoculated 2 days after application. The protocol:
Example B18: Pyrenophora teres/Barley/Leaf Disc Preventative (Net Blotch)
Barley leaf segments cv. Hasso are placed on agar in a multiwell plate (24-well format) and sprayed with the formulated test compound diluted in water. The leaf segments are inoculated with a spore suspension of the fungus 2 days after application. The inoculated leaf segments are incubated at 20° C. and 65% rh under a light regime of 12 h light/12 h darkness in a climate cabinet and the activity of a compound is assessed as disease control compared to untreated when an appropriate level of disease damage appears in untreated check leaf segments (5-7 days after application).

Assay [4] deals with Thanatephorus cucumeris (Rhizoctonia solani). As to the kind of experiment: Example B19: Thanatephorus cucumeris (Rhizoctonia solani)/Liquid Culture (Foot Rot, Damping-Off). Type of assay: cell-based. The conditions noted are these: 20 ppm; liquid culture, photometrically 3-4 days after application. The protocol:
Example B19: Thanatephorus cucumeris (Rhizoctonia solani)/Liquid Culture (Foot Rot, Damping-Off)
Mycelia fragments of a newly grown liquid culture of the fungus are directly mixed into nutrient broth (PDB potato dextrose broth). After placing a (DMSO) solution of the test compounds into a microtiter plate (96-well format), the nutrient broth containing the fungal material is added. The test plates are incubated at 24° C. and the inhibition of growth is determined photometrically 3-4 days after application.

The test system of assay [5] is Botryotinia fuckeliana (Botrytis cinerea). As to the kind of experiment: Example B2: Botryotinia fuckeliana (Botrytis cinerea)/Liquid Culture (Gray Mould). To be noted: liquid culture, growth inhibition photometrically 3 to 4 days after application, read-out: control of Botryotinia fuckeliana. The format is cell-based. The method, then:
Example B2: Botryotinia fuceliana (Botrytis cinerea)/Liquid Culture (Gray Mould)
Conidia of the fungus from cryogenic storage are directly mixed into nutrient broth (Vogels broth). After placing a (DMSO) solution of test compound into a microtiter plate (96-well format), the nutrient broth containing the fungal spores is added. The test plates are incubated at 24° C. and the inhibition of growth is determined photometrically 3 to 4 days after application.

Assay [6] deals with Mycosphaerella graminicola (Septoria tritici). As to the kind of experiment: Example B21: Mycosphaerella graminicola (Septoria tritici)/Liquid Culture (Septoria Blotch). Type of assay: cell-based. To be noted: Zymoseptoria tritici, liquid culture, photometrically 4-5 days after application, read-out: control of Mycosphaerella graminicola. The protocol: Example B21: Mycosphaerella graminicola (Septoria tritici)/Liquid Culture (Septoria Blotch)
Conidia of the fungus from cryogenic storage are directly mixed into nutrient broth (PDB potato dextrose broth). After placing a (DMSO) solution of test compound into a microtiter plate (96-well format), the nutrient broth containing the fungal spores is added. The test plates are incubated at 24° C. and the inhibition of growth is determined photometrically 4-5 days after application.

Assay [7] concerns Puccinia recondita f. sp. tritici. As to the kind of experiment: Example B16: Puccinia recondita f. sp. tritici/Wheat/Leaf Disc Preventative (Brown Rust). Type of assay: in vivo. The conditions noted are these: 200 ppm, wheat leaf segments, inoculated 1 day after application. The method, then: Example B16: Puccinia recondita f. sp. tritici/Wheat/Leaf Disc Preventative (Brown Rust)
Wheat leaf segments cv. Kanzler are placed on agar in multiwell plates (24-well format) and sprayed with the formulated test compound diluted in water. The leaf disks are inoculated with a spore suspension of the fungus 1 day after application. The inoculated leaf segments are incubated at 19° C. and 75% rh under a light regime of 12 h light/12 h darkness in a climate cabinet and the activity of a compound is assessed as percent disease control compared to untreated when an appropriate level of disease damage appears in untreated check leaf segments (7-9 days after application).

Assay [8] concerns Magnaporthe grisea (Pyricularia oryzae). The format is in vivo. To be noted: 200 ppm; rice leaf segments, preventative, inoculated 2 days after application.
In assay [9] the test system is Monographella nivalis (Microdochium nivale). Put plainly: Example B12: Monographella nivalis (Microdochium nivale)/Liquid Culture (Foot Rot Cereals). Type of assay: cell-based. The conditions noted are these: liquid culture, photometrically 4 to 5 days after application, read-out: control of Monographella nivalis. The protocol: Example B12: Monographella nivalis (Microdochium nivale)/Liquid Culture (Foot Rot Cereals)
(§1) Conidia of the fungus from cryogenic storage are directly mixed into nutrient broth (PDB potato dextrose broth). After placing a (DMSO) solution of test compound into a microtiter plate (96-well format), the nutrient broth containing the fungal spores is added. The test plates are incubated at 24° C. and the inhibition of growth is determined photometrically 4 to 5 days after application.

In assay [10] the test system is Phaeosphaeria nodorum (Septoria nodorum). Put plainly: Example B11: Phaeosphaeria nodorum (Septoria nodorum)/Wheat/Leaf Disc Preventative (Glume Blotch). Type of assay: in vivo. To be noted: Parastagonospora nodorum, foliar, wheat leaf segments, inoculated 2 days after application. The protocol: Example B11: Phaeosphaeria nodorum (Septoria nodorum)/Wheat/Leaf Disc Preventative (Glume Blotch)
Wheat leaf segments cv. Kanzler are placed on agar in a multiwell plate (24-well format) and sprayed with the formulated test compound diluted in water. The leaf disks are inoculated with a spore suspension of the fungus 2 days after application. The inoculated test leaf disks are incubated at 20° C. and 75% rh under a light regime of 12 h light/12 h darkness in a climate cabinet and the activity of a compound is assessed as percent disease control compared to untreated when an appropriate level of disease damage appears in untreated check leaf disks (5-7 days after application).

The test system of assay [11] is Mycosphaerella arachidis (Cercospora arachidicola). Put plainly: Example B13: Mycosphaerella arachidis (Cercospora arachidicola)/Liquid Culture (Early Leaf Spot). To be noted: liquid culture, photometrically 4 to 5 days after application, read-out: control of Mycosphaerella arachidis. The format is cell-based. The protocol: Example B13: Mycosphaerella arachidis (Cercospora arachidicola)/Liquid Culture (Early Leaf Spot)
as §1

Assay [12] deals with Alternaria solani. As to the kind of experiment: Example B1: Alternaria solani/Tomato/Leaf Disc (Early Blight). Type of assay: in vivo. To be noted: foliar, tomato leaf disks, inoculated 2 days after application, compared to untreated control. The method, then: Example B1: Alternaria solani/Tomato/Leaf Disc (Early Blight)
Tomato leaf disks cv. Baby are placed on agar in multiwell plates (24-well format) and sprayed with the formulated test compound diluted in water. The leaf disks are inoculated with a spore suspension of the fungus 2 days after application. The inoculated leaf disks are incubated at 23° C./21° C. (day/night) and 80% rh under a light regime of 12/12 h (light/dark) in a climate cabinet and the activity of a compound is assessed as percent disease control compared to untreated when an appropriate level of disease damage appears on untreated check leaf disks (5-7 days after application).

In assay [13] the test system is Gibberella zeae (Fusarium graminearum). The format is in vivo. To be noted: 200 ppm; wheat spikelets, preventative, inoculated one day after application.
Assay [14] concerns Fusarium culmorum. Type of assay: in vivo. The conditions noted are these: 200 ppm; wheat spikelets, preventative, inoculated 1 day after application.
The subject of assay [15] is Plasmopara viticola. The format is in vivo. To be noted: 200 ppm; grape vine leaf disks, preventative, inoculated 1 day after application.

Some results are limits rather than exact numbers.

Turning to `C[C@@H]1c2ccccc2[C@@](C)(c2cnn(C)c2)CN1C(=O)c1cc(-c2ccc(F)cc2F)on1` (single isomer, unassigned) [peak 1], the “fungicidal activity compared with the other enantiomer” value in assay [1] is on record as “more fungicidally active than the compound of peak 2”.

For the compound `Cc1c(C2CN(C(=O)c3cc(-c4ccc(F)cc4F)on3)Cc3ccccc32)cnn1C` (centres unmarked) [X.16, [5-(2,4-difluorophenyl)isoxazol-3-yl]-[4-(1,5-dimethylpyrazol-4-yl)-3,4-dihydro-1H-isoquinolin-2-yl]methanone], the inhibition of growth at 20 ppm in assay [2], in assay [5], in [6], in [9] and in [11] was at least 80% in each case. The pest or weed control at 200 ppm in assay [3] and in assay [10] was at least 80% in each case. For the same compound, the “control of Thanatephorus cucumeris” value in assay [4] is listed as “at least 80%”. The “control of Puccinia recondita f. sp. tritici” value in [7] was “at least 80%”. For the same compound, the “control of Magnaporthe grisea” value in assay [8] is given as “at least 80%”.

Take `Cn1cc(C2c3ccccc3CN(C(=O)c3cc(-c4ccc(F)cc4F)on3)C2(C)C)cn1` (centres unmarked) [X.13, [5-(2,4-difluorophenyl)isoxazol-3-yl]-[3,3-dimethyl-4-(1-methylpyrazol-4-yl)-1,4-dihydroisoquinolin-2-yl]methanone]: the inhibition of growth at 20 ppm in [2], in [5], in [6], in [9] and in [11] was at least 80% each time. Moreover, the pest or weed control at 200 ppm in assay [3] and in assay [10] was at least 80% each time.

Turning to `C[C@H]1c2ccccc2[C@@](C)(c2cnn(C)c2)CN1C(=O)c1cc(-c2ccc(F)cc2F)on1` (single isomer, unassigned) [X.22], the “fungicidal activity compared with the other enantiomer” value in assay [1] was “more fungicidally active than the compound of peak 3”.

Consider `Cc1c(C2CN(C(=O)c3nc(-c4ccc(F)cc4F)no3)Cc3ccccc32)cnn1C` (centres unmarked) [X.02, [3-(2,4-difluorophenyl)-1,2,4-oxadiazol-5-yl]-[4-(1,5-dimethylpyrazol-4-yl)-3,4-dihydro-1H-isoquinolin-2-yl]methanone], for which the inhibition of growth at 20 ppm in assay [2], in assay [5], in assay [6], in assay [9] and in [11] was at least 80% each time. Further, the pest or weed control at 200 ppm in [12] and in assay [10] was at least 80% in each case.

Take `Cc1c([C@H]2CN(C(=O)c3cc(-c4ncc(F)cc4F)on3)[C@@H](C)c3ccccc32)cnn1C` (racemic) [X.21, [5-(3,5-difluoro-2-pyridyl)isoxazol-3-yl]-[rac-(1S,4S)-4-(1,5-dimethylpyrazol-4-yl)-1-methyl-3,4-dihydro-1H-isoquinolin-2-yl]methanone]: the inhibition of growth at 20 ppm in assay [2], in assay [5], in assay [6], in [9] and in assay [11] was at least 80% each time. The pest or weed control at 200 ppm in assay [3], in [12] and in assay [10] was at least 80% each time. Also, the “control of Gibberella zeae” value in assay [13] was “at least 80%”. In addition, the “control of Fusarium culmorum” value in [14] is on record as “at least 80%”.

Turning to `Cn1cc(C2CN(C(=O)c3noc(-c4ccccc4)n3)Cc3ccccc32)cn1` (centres unmarked) [X.17, [4-(1-methylpyrazol-4-yl)-3,4-dihydro-1H-isoquinolin-2-yl]-(5-phenyl-1,2,4-oxadiazol-3-yl)methanone], the inhibition of growth at 20 ppm in [5], in assay [6], in [9] and in assay [11] was at least 80% each time. Further, the pest or weed control at 200 ppm in assay [10] is at least 80%. Besides, in [15], the “control of Plasmopara viticola” value is “at least 80%”.

With `Cn1ncc(C2CN(C(=O)c3cc(-c4ccc(F)cc4F)on3)Cc3ccccc32)c1F` (centres unmarked) [X.12, [5-(2,4-difluorophenyl)isoxazol-3-yl]-[4-(5-fluoro-1-methyl-pyrazol-4-yl)-3,4-dihydro-1H-isoquinolin-2-yl]methanone], the inhibition of growth at 20 ppm in assay [2], in [5], in [6], in [9] and in assay [11] was at least 80% throughout. In addition, the pest or weed control at 200 ppm in assay [3] and in [10] was at least 80% in each case.

For `Cn1cc([C@]2(C)CN(C(=O)c3nnc(-c4ccc(F)cc4F)s3)Cc3ccccc32)cn1` [X.06, [5-(2,4-difluorophenyl)-1,3,4-thiadiazol-2-yl]-[(4R)-4-methyl-4-(1-methylpyrazol-4-yl)-1,3-dihydroisoquinolin-2-yl]methanone], the inhibition of growth at 20 ppm in [2], in assay [5], in assay [6], in assay [9] and in [11] was at least 80% each time. The pest or weed control at 200 ppm in assay [3] and in assay [10] was at least 80% throughout.

In general, pest or weed control refers to how far the test organism was held down. Higher therefore signals strong suppression.
